Several values for one entry are separate records, joined by “and”; a condition that tells them apart may be missing. Identical values can stand only once. Inconclusive results and toxic doses are left out. Rule as the data show it: active = T/C of 150% or more; inactive = T/C below 125%.
Tested on: L1210 leukemia ip in BDF1 mice, survival T/C
Test: NCI In Vivo Anticancer Drug Screen. Data for tumor model L1210 Leukemia (intraperitoneal) in B6D2F1 (BDF1) mice
Settings: higher = longer survival
Procedure, shortened: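 Ratio derived from survival: compound-dosed mice over vehicle-dosed mice, all bearing a transplantable tumor.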

[1] = endpoint: mean survival time, dose: 50.0 mg/kg/injection, schedule: Q01DX009 (ip), vehicle: saline with Tween-80
[2] = endpoint: mean survival time, dose: 100.0 mg/kg/injection, schedule: Q01DX009 (ip), vehicle: Klucel (hydroxypropylcellulose) (HPC)
[3] = endpoint: mean survival time, dose: 100.0 mg/kg/injection, schedule: Q01DX009 (ip), vehicle: saline with Tween-80
[4] = endpoint: mean survival time, dose: 100.0 mg/kg/injection, schedule: Q04DX002 (ip), vehicle: saline with Tween-80
[5] = endpoint: mean survival time, dose: 200.0 mg/kg/injection, schedule: Q04DX002 (ip), vehicle: saline with Tween-80
[6] = endpoint: mean survival time, dose: 400.0 mg/kg/injection, schedule: Q04DX002 (ip), vehicle: saline with Tween-80
[7] = endpoint: mean survival time, dose: 200.0 mg/kg/injection, schedule: Q01DX001 (ip), vehicle: carboxymethylcellulose (CMC)

Measured: T/C

[Br][Sn]([Br])([c]1cccc2ccccc12)[c]1cccc2ccccc12
inactive: endpoint: mean survival time, dose: 100.0 mg/kg/injection, schedule: Q01DX001 (ip), vehicle: saline with Tween-80 102 % of control | endpoint: mean survival time, dose: 200.0 mg/kg/injection, schedule: Q01DX001 (ip), vehicle: saline with Tween-80 93 % of control | endpoint: mean survival time, dose: 400.0 mg/kg/injection, schedule: Q01DX001 (ip), vehicle: saline with Tween-80 93 % of control

C=C/C(C)=C/[C@H](C)C(=O)C[C@H](O)CC1CC(=O)NC(=O)C1
inactive: endpoint: mean survival time, dose: 12.5 mg/kg/injection, schedule: Q01DX009 (ip), vehicle: saline with Tween-80 109 % of control | endpoint: mean survival time, dose: 25.0 mg/kg/injection, schedule: Q01DX009 (ip), vehicle: Klucel (hydroxypropylcellulose) (HPC) 113 % of control | endpoint: mean survival time, dose: 25.0 mg/kg/injection, schedule: Q01DX009 (ip), vehicle: saline with Tween-80 120 % of control | endpoint: mean survival time, dose: 50.0 mg/kg/injection, schedule: Q01DX009 (ip), vehicle: Klucel (hydroxypropylcellulose) (HPC) 122 % of control | [1] 119 % of control | [2] 90 % of control | [3] 123 % of control

COC(=O)Cc1ccc(Br)cc1
inactive: [1] 106 % of control | [3] 98 % of control | endpoint: mean survival time, dose: 200.0 mg/kg/injection, schedule: Q01DX009 (ip), vehicle: saline with Tween-80 88 % of control

CC(=O)O[C@]1(C(C)=O)CC[C@H]2[C@@H]3C[C@H](C)C4=CC(=O)C=C[C@]4(C)[C@@]3(F)[C@@H](O)C[C@@]21C
inactive: endpoint: mean survival time, dose: 12.5 mg/kg/injection, schedule: Q01DX010 (sc), vehicle: steriod suspending solution 96 % of control and 98 % of control | endpoint: mean survival time, dose: 25.0 mg/kg/injection, schedule: Q01DX009 (sc), vehicle: steriod suspending solution 103 % of control and 104 % of control and 111 % of control | endpoint: mean survival time, dose: 25.0 mg/kg/injection, schedule: Q01DX010 (sc), vehicle: steriod suspending solution 98 % of control and 101 % of control | endpoint: mean survival time, dose: 50.0 mg/kg/injection, schedule: Q01DX009 (sc), vehicle: steriod suspending solution 93 % of control and 95 % of control and 111 % of control | endpoint: mean survival time, dose: 50.0 mg/kg/injection, schedule: Q01DX010 (sc), vehicle: steriod suspending solution 95 % of control and 107 % of control | endpoint: mean survival time, dose: 100.0 mg/kg/injection, schedule: Q01DX009 (sc), vehicle: steriod suspending solution 98 % of control (2×) and 111 % of control | endpoint: mean survival time, dose: 100.0 mg/kg/injection, schedule: Q01DX010 (sc), vehicle: steriod suspending solution 98 % of control and 107 % of control | endpoint: mean survival time, dose: 200.0 mg/kg/injection, schedule: Q01DX009 (sc), vehicle: steriod suspending solution 95 % of control (2×) and 111 % of control | endpoint: median survival time, dose: 25.0 mg/kg/injection, schedule: Q01DX009 (sc), vehicle: steriod suspending solution 106 % of control | endpoint: median survival time, dose: 50.0 mg/kg/injection, schedule: Q01DX009 (sc), vehicle: steriod suspending solution 100 % of control | endpoint: median survival time, dose: 100.0 mg/kg/injection, schedule: Q01DX009 (sc), vehicle: steriod suspending solution 100 % of control | endpoint: median survival time, dose: 200.0 mg/kg/injection, schedule: Q01DX009 (sc), vehicle: steriod suspending solution 100 % of control

CCc1ccccc1NC(=O)C(c1ccccc1)c1ccccc1
inactive: [2] 100 % of control | endpoint: mean survival time, dose: 100.0 mg/kg/injection, schedule: Q04DX003 (ip), vehicle: Klucel (hydroxypropylcellulose) (HPC) 100 % of control | endpoint: mean survival time, dose: 200.0 mg/kg/injection, schedule: Q01DX009 (ip), vehicle: Klucel (hydroxypropylcellulose) (HPC) 105 % of control | endpoint: mean survival time, dose: 200.0 mg/kg/injection, schedule: Q04DX003 (ip), vehicle: Klucel (hydroxypropylcellulose) (HPC) 93 % of control | endpoint: mean survival time, dose: 400.0 mg/kg/injection, schedule: Q01DX009 (ip), vehicle: Klucel (hydroxypropylcellulose) (HPC) 96 % of control | endpoint: mean survival time, dose: 400.0 mg/kg/injection, schedule: Q04DX003 (ip), vehicle: Klucel (hydroxypropylcellulose) (HPC) 90 % of control

CCCCCCCCCCCCCCNC1=C(OC)C(=O)C(NCCCCCCCCCCCCCC)=C(OC)C1=O
inactive: endpoint: mean survival time, dose: 100.0 mg/kg/injection, schedule: Q01DX001 (ip), vehicle: other 95 % of control | endpoint: mean survival time, dose: 200.0 mg/kg/injection, schedule: Q01DX001 (ip), vehicle: other 104 % of control | endpoint: mean survival time, dose: 400.0 mg/kg/injection, schedule: Q01DX001 (ip), vehicle: other 90 % of control

O=[Se](c1ccccc1)c1ccccc1
inactive: endpoint: mean survival time, dose: 25.0 mg/kg/injection, schedule: Q04DX002 (ip), vehicle: Klucel (hydroxypropylcellulose) (HPC) 103 % of control | endpoint: mean survival time, dose: 50.0 mg/kg/injection, schedule: Q04DX002 (ip), vehicle: Klucel (hydroxypropylcellulose) (HPC) 94 % of control | endpoint: mean survival time, dose: 100.0 mg/kg/injection, schedule: Q04DX002 (ip), vehicle: Klucel (hydroxypropylcellulose) (HPC) 87 % of control

CCCCCCCCC1OC1CCCCCCCC(N)=O (configuration not stated)
inactive: [4] 92 % of control | [5] 88 % of control | [6] 100 % of control

COc1cc(C)cc(C(=O)O)c1O
inactive: [7] 90 % of control

O=C(Nc1cccc(NC(=O)Nc2cc(C(O)=Nc3ccc(C4=NCCN4)cc3)ccc2C(O)=Nc2ccc(C3=NCCN3)cc2)c1)Nc1cc(C(O)=Nc2ccc(C3=NCCN3)cc2)ccc1C(O)=Nc1ccc(C2=NCCN2)cc1
inactive: endpoint: mean survival time, dose: 15.0 mg/kg/injection, schedule: Q01DX Z (ip), vehicle: saline 92 % of control | endpoint: mean survival time, dose: 30.0 mg/kg/injection, schedule: Q01DX Z (ip), vehicle: saline 97 % of control | endpoint: mean survival time, dose: 60.0 mg/kg/injection, schedule: Q01DX Z (ip), vehicle: saline 102 % of control | endpoint: mean survival time, dose: 120.0 mg/kg/injection, schedule: Q01DX Z (ip), vehicle: saline 105 % of control

Cc1ccc(S(=O)(=O)N2CN(S(=O)(=O)c3ccc(C)cc3)CN(S(=O)(=O)c3ccc(C)cc3)C2)cc1
inactive: [4] 94 % of control | [5] 91 % of control | [6] 91 % of control

CCCN=C(N)C(N)=NCCC
inactive: endpoint: mean survival time, dose: 100.0 mg/kg/injection, schedule: Q01DX009 (ip), vehicle: saline 91 % of control | endpoint: mean survival time, dose: 100.0 mg/kg/injection, schedule: Q04DX003 (ip), vehicle: saline 98 % of control | endpoint: mean survival time, dose: 200.0 mg/kg/injection, schedule: Q01DX009 (ip), vehicle: saline 92 % of control | endpoint: mean survival time, dose: 200.0 mg/kg/injection, schedule: Q04DX003 (ip), vehicle: saline 98 % of control | endpoint: mean survival time, dose: 400.0 mg/kg/injection, schedule: Q04DX003 (ip), vehicle: saline 91 % of control

O=C(OC1COC(n2c(=O)oc3cc(Br)c(Cl)cc32)C(OC(=O)c2ccccc2)C1OC(=O)c1ccccc1)c1ccccc1 (configuration not stated)
inactive: endpoint: mean survival time, dose: 100.0 mg/kg/injection, schedule: Q01DX001 (ip), vehicle: carboxymethylcellulose (CMC) 96 % of control | [7] 96 % of control | endpoint: mean survival time, dose: 400.0 mg/kg/injection, schedule: Q01DX001 (ip), vehicle: carboxymethylcellulose (CMC) 89 % of control

CC(=O)Nc1cc(N)cc(NC(C)=O)c1
inactive: endpoint: mean survival time, dose: 50.0 mg/kg/injection, schedule: Q01DX009 (ip), vehicle: water 91 % of control | endpoint: mean survival time, dose: 100.0 mg/kg/injection, schedule: Q01DX009 (ip), vehicle: water 103 % of control and 107 % of control | endpoint: mean survival time, dose: 100.0 mg/kg/injection, schedule: Q04DX003 (ip), vehicle: water 100 % of control | endpoint: mean survival time, dose: 200.0 mg/kg/injection, schedule: Q01DX009 (ip), vehicle: water 102 % of control and 103 % of control | endpoint: mean survival time, dose: 200.0 mg/kg/injection, schedule: Q04DX003 (ip), vehicle: water 98 % of control | endpoint: mean survival time, dose: 400.0 mg/kg/injection, schedule: Q01DX009 (ip), vehicle: water 93 % of control
